Test results taken from ChEMBL document CHEMBL1129702, “Synthesis and pharmacological profile of new 1,3-disubstituted cyclohexanes as leukotriene B4 receptor antagonists” (Bioorg Med Chem Lett, 1996).

What was measured:
[1] = biological target: T1, Leukotriene B4 receptor 1 (Homo sapiens, UniProt Q15722); assay: Compound was evaluated for inhibitory activity against LTB4 receptor in human neutrophil membranes using [3H]- LTB4 as radioligand; type: cell membranes
[2] = biological target: T1, Leukotriene B4 receptor 1; assay: Compound was evaluated for relative binding affinity against LTB4 receptor in human neutrophil membranes using [3H]- LTB4 as radioligand relative to leukotriene B4; type: cell membranes

T1 sequence (Q15722 whole entry): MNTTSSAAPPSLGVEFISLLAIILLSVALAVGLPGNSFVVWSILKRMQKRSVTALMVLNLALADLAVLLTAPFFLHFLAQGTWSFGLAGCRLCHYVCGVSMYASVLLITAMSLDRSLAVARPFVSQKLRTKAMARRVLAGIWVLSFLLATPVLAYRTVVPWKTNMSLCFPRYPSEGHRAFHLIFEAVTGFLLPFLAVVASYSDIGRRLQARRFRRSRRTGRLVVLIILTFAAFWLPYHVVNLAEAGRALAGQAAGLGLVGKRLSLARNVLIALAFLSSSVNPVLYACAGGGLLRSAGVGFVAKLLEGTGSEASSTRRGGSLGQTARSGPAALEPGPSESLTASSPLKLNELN

| SMILES | IC50 [1] | relative binding affinity (RBA) [2] |
| --- | --- | --- |
| CCCCCC(O)/C=C/[C@H]1CCC[C@@](O)(CCCC(=O)O)C1 (stereo not given in full) | 70 µM | – |
| CCCCCC(O)/C=C/[C@H]1CCC[C@@](O)(CC(=O)O)C1 (stereo not given in full) | 8 µM | 0.001 |
| O=C(O)C[C@]1(O)CCC[C@H](/C=C/C(O)CCCCc2ccccc2)C1 (stereo in doubt; 1d) [listing 1 of 2 here] | 0.8 µM | – |
| O=C(O)C[C@]1(O)CCC[C@H](/C=C/C(O)CCCCc2ccccc2)C1 (stereo in doubt; 1d) [listing 2 of 2 here] | – | 0.01 |
| CCCCCCCCC(O)/C=C/[C@H]1CCC[C@@](O)(CC(=O)O)C1 (stereo not given in full) | 1 µM | 0.008 |
| O=C(O)C[C@]1(O)CCC[C@H](/C=C/C(O)CCCCc2ccccc2)C1 (stereo in doubt; 1d2) | 70 µM | – |
| O=C(O)C[C@]1(O)CCC[C@H](/C=C/C(O)CCCCc2ccccc2)C1 (stereo in doubt; 1d1) [listing 1 of 2 here] | – | 0.025 |
| O=C(O)C[C@]1(O)CCC[C@H](/C=C/C(O)CCCCc2ccccc2)C1 (stereo in doubt; 1d1) [listing 2 of 2 here] | 0.3 µM | – |
